Test results reported in PubChem BioAssay (NCI).
Values joined by “and” are separate entries in the source; they are usually repeats but may differ in a detail not shown here. Equal entries are not always repeated.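 All cell lines were grown in 96-well plates and treated with compound for 48 hours. Abbreviation: GI50, concentration required for 50% inhibition of growth. TGI: concentration producing complete growth inhibition.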

Columns and labels:
Experiment in all cases: NCI anticancer screen, dose series, 48 h
UACC-62 melanoma = test system: UACC-62 melanoma
MDA-MB-231 breast = test system: MDA-MB-231 breast
ACHN renal = test system: ACHN renal
SF-268 CNS = test system: SF-268 CNS
M14 melanoma = test system: M14 melanoma
TK-10 renal = test system: TK-10 renal
T-47D breast = test system: T-47D breast
U251 CNS = test system: U251 CNS
SNB-19 CNS = test system: SNB-19 CNS
SK-MEL-5 melanoma = test system: SK-MEL-5 melanoma

| SMILES | GI50 (UACC-62 melanoma) | TGI (UACC-62 melanoma) | GI50 (MDA-MB-231 breast) | TGI (MDA-MB-231 breast) | GI50 (ACHN renal) | TGI (ACHN renal) | GI50 (SF-268 CNS) | TGI (SF-268 CNS) [µM] | GI50 (M14 melanoma) | TGI (M14 melanoma) [µM] | GI50 (TK-10 renal) | TGI (TK-10 renal) | GI50 (T-47D breast) | TGI (T-47D breast) | GI50 (U251 CNS) | TGI (U251 CNS) | GI50 (SNB-19 CNS) [µM] | TGI (SNB-19 CNS) | GI50 (SK-MEL-5 melanoma) | TGI (SK-MEL-5 melanoma) |
| --- | --- | --- | --- | --- | --- | --- | --- | --- | --- | --- | --- | --- | --- | --- | --- | --- | --- | --- | --- | --- |
| O=C1/C(=C/c2ccc(F)c(F)c2)CN(C(=O)C(Cl)Cl)C/C1=C\c1ccc(F)c(F)c1 | 0.172 µM | 0.365 µM | 0.194 µM | 0.692 µM | 0.0776 µM | 0.249 µM | 0.265 µM | 0.982 | 0.168 µM | 0.515 | 0.258 µM | 0.84 µM | 0.302 µM | 2.05 µM | 0.0331 µM | 0.131 µM | 0.0782 | 0.274 µM | 0.19 µM | 0.38 µM |
| Nc1ncn(C2OC(COP(=O)(O)O)C(O)C2O)c(=O)n1 (centres undefined) |  | > 100 µM |  | > 100 µM |  | > 100 µM |  | > 100 |  | > 100 |  | > 100 µM |  | > 100 µM |  | > 100 µM |  | > 100 µM |  | > 100 µM |
| COC1(OC)C2(Cl)C(Cl)=C(Cl)C1(Cl)C1c3ccc(C(C)=O)c4cccc(c34)C12 (centres undefined) |  | > 100 µM |  | > 100 µM |  | > 87.4 µM |  | > 100 |  | > 96.4 |  | > 100 µM |  | 99.3 µM |  | 99.9 µM |  | > 100 µM |  | 27.7 µM |
| Cc1ccc(-c2c(C#N)[n+](=O)c3cc(F)c(F)cc3n2[O-])cc1 | 4.25 µM | 16.1 µM | 1.81 µM | 3.98 µM | 2.2 µM | 5.83 µM | 14.3 µM | 30 | 2.18 µM | 5.73 | 2.37 µM | 6.69 µM | 28.4 µM | 67.5 µM | 1.43 µM | 2.94 µM | 18.6 | 34.9 µM | 14.2 µM | 28.1 µM |
| O=C1C=C2C=CC3CC2(O1)C1CCCCN31 (centres undefined) | 15.8 µM and 13.9 µM and 57.1 µM | 42.3 µM and 30.1 µM and > 100 µM | 19 µM and 21.6 µM and 39.7 µM | > 100 µM and 67.9 µM | 23.9 µM and 15.9 µM and 50.2 µM | > 100 µM and 84.3 µM | 25.4 µM and 12.7 µM and 41.2 µM | > 100 | 28.1 µM and 24 µM and 54.4 µM | > 100 | 17.3 µM and 13.6 µM and 31 µM | 79 µM and 41.4 µM and > 100 µM | 22.3 µM and 14.1 µM and 53.4 µM | 71.6 µM and 36.2 µM and > 100 µM | 20 µM and 27.7 µM and 60.9 µM | 62 µM and 88.8 µM and > 100 µM |  | > 100 µM and 55.5 µM | 15.9 µM and 19.9 µM and 34.9 µM | 33.5 µM and 54.5 µM and > 100 µM |
| Cc1cc(C(=O)Nc2cc(Oc3ccc4nc(NC(=O)C5CC5)cn4n3)ccc2C)n(C)n1 | > 10 µM | > 10 µM | > 10 µM | > 10 µM | > 10 µM | > 10 µM | > 10 µM | > 10 | 5.51 µM | > 10 | > 10 µM | > 10 µM | > 10 µM | > 10 µM | > 10 µM | > 10 µM | > 10 | > 10 µM | > 10 µM | > 10 µM |
| Clc1ccccc1[C@@H]1C[C@@H]2Cc3cc(Br)c4ccccc4c3N1O2 | 4.29 µM | > 100 µM | 10.4 µM | > 100 µM | 5.62 µM | > 100 µM | 5.02 µM | > 100 | 3.74 µM | > 100 | 5.54 µM | > 100 µM | 4.26 µM | > 100 µM | 3.65 µM | > 100 µM | 8.11 | > 100 µM | 2.81 µM | 15.2 µM |
| CC/C=C\C[C@H](O)C/C=C1/C(=O)C=C[C@@H]1C/C=C\CCCC(=O)OC(C)C | 1.37 µM | 3.16 µM | 3.17 µM | 9.77 µM | 1.88 µM | 3.79 µM | 2 µM | 6.31 | 0.79 µM | 3.17 | 3.54 µM | 9.31 µM | 1.37 µM | 7 µM | 0.48 µM | 1.74 µM | 3.3 | 12.8 µM | 1.17 µM | 2.51 µM |
| O=C1NC(=O)[C@@]2(CC[C@@H](O)C2)c2ccncc21 |  | > 100 µM |  | > 100 µM |  | > 100 µM |  | > 100 |  | > 100 |  | > 100 µM |  | > 100 µM |  | > 100 µM |  | > 100 µM |  | > 100 µM |
| O=C(O)/C=C/c1ccc[c]([Sb](=[O])([OH])[OH])c1 | > 100 µM | > 100 µM | > 100 µM | > 100 µM | > 100 µM | > 100 µM | > 100 µM | > 100 | > 100 µM | > 100 | > 100 µM | > 100 µM | > 100 µM | > 100 µM | > 100 µM | > 100 µM | > 100 | > 100 µM | > 100 µM | > 100 µM |
| Cc1ccc2[nH]c3c(c2c1)N=c1ccccc1=NO3 | 36.5 µM | > 100 µM | 35.9 µM | > 100 µM | 32.3 µM | > 100 µM | 23.1 µM | 55.8 | 48 µM | > 100 | 38.2 µM | > 100 µM | 74.4 µM | > 100 µM | 53.7 µM | > 100 µM | 32.6 | > 100 µM | 40.9 µM | > 100 µM |
| COc1ccc(C(C#N)=C2C=CC(=NO)C=C2)cc1 | 8.34 µM | 21.9 µM | 12.6 µM | 35.3 µM | 8.63 µM | 21.1 µM | 3.81 µM | 14.2 | 6.09 µM | 19.6 | 3.87 µM | 8.72 µM | 1.76 µM | 5.36 µM | 6.46 µM | 19.4 µM | 16.1 | 32.1 µM | 4.34 µM | 17.2 µM |
| COc1cc(OC)c(/C=C/C(=O)c2ccc(Nc3ncnc4ccccc34)cc2)c(OC)c1 | 0.599 µM | 2.18 µM | 1.43 µM | 4.11 µM | 1.83 µM | 17.7 µM | 1.37 µM | 4.4 | 0.575 µM | 2.5 | 1.54 µM | 3.68 µM | 1.51 µM | 14.3 µM | 0.686 µM | 2.73 µM | 1.23 | 14.5 µM | 0.426 µM | 1.98 µM |
